In patent publication US20100267561A1, “HERBICIDAL PYRIDAZINONE DERIVATIVES” (priority 2007, published 2010):

Columns and labels:
Assay in all cases: Test B pre-/postemergence plant response
Assay type in all cases: in vivo
[1] = test system: wheat (Triticum aestivum); details: for Wheat plant response rating: 8 g ai/ha
Summary of the method: (§1)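 Seeds were sown and sprayed preemergence, while plants at 2 to 18 cm (1- to 4-leaf stage) got postemergence sprays. Compounds were formulated in a non-phytotoxic solvent mixture with surfactant. After 13 to 15 days in a greenhouse, injury was rated visually against untreated controls, 0 (no effect) to 100 (complete control).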

wild oat (Avena fatua) = details: for Oat, Wild plant response rating: 8 g ai/ha
Summary of the method: as §1

[2] = test system: lambsquarters (Chenopodium album); details: for Lambsquarters plant response rating: 8 g ai/ha
Summary of the method: as §1

corn (Zea mays) = details: for Corn plant response rating: 8 g ai/ha
Summary of the method: as §1

[3] = test system: catchweed bedstraw (Galium aparine); details: Preemergence
Summary of the method: as §1

[4] = test system: green foxtail (Setaria viridis); details: for Foxtail, Green plant response rating: 8 g ai/ha
Summary of the method: as §1

[5] = test system: velvetleaf (Abutilon theophrasti); details: for Velvetleaf plant response rating: 8 g ai/ha
Summary of the method: as §1

[6] = test system: large crabgrass (Digitaria sanguinalis); details: for Crabgrass, Large plant response rating: 8 g ai/ha
Summary of the method: as §1

[7] = test system: giant foxtail (Setaria faberii); details: for Foxtail, Giant plant response rating: 8 g ai/ha
Summary of the method: as §1

[8] = test system: blackgrass (Alopecurus myosuroides)
Summary of the method: as §1

[9] = test system: morningglory (Ipomoea coccinea); details: for Morningglory plant response rating: 8 g ai/ha
Summary of the method: as §1

[10] = test system: bermudagrass (Cynodon dactylon)
Summary of the method: as §1

[11] = test system: downy bromegrass (Bromus tectorum); details: for Bromegrass, Downy plant response rating: 8 g ai/ha
Summary of the method: as §1

[12] = test system: common (oilseed) sunflower (Helianthus annuus); details: Preemergence
Summary of the method: as §1

[13] = Preemergence, 31 g ai/ha, 0 to 100 scale, 0 no effect, 100 complete control
[14] = Preemergence, 62 g ai/ha, scale 0 to 100
[15] = Preemergence, 125 g ai/ha, scale 0 to 100
[16] = Preemergence, 250 g ai/ha, scale 0 to 100
[17] = 31 g ai/ha, 0 to 100 scale, 0 no effect, 100 complete control
[18] = 250 g ai/ha, preemergence, 0-100 scale
[19] = Postemergence, 16 g ai/ha, scale 0 to 100
[20] = Postemergence, 31 g ai/ha, scale 0 to 100
[21] = Postemergence, 62 g ai/ha, scale 0 to 100, 0 no effect, 100 complete control
[22] = Preemergence, 16 g ai/ha, scale 0 to 100 (0 no effect, 100 complete control)
[23] = Preemergence, 31 g ai/ha, scale 0 to 100 (0 no effect, 100 complete control)
[24] = Preemergence, 62 g ai/ha, 0 to 100 scale, 0 no effect, 100 complete control
[25] = 16 g ai/ha, scale 0 to 100 (0 no effect, 100 complete control)
[26] = 8 g ai/ha, postemergence, 0-100 scale

Cc1cc(-c2ccc(C(F)(F)F)cc2)nn1-c1c(OC(=O)C(C)(C)C)cnn(C)c1=O [Compound 2]
0: Plant response rating, Oat, Wild (wild oat (Avena fatua); [13]) | Plant response rating, Lambsquarters [2, 13] | Plant response rating, Lambsquarters [2, 14] | Plant response rating, Lambsquarters [2, 15] | Plant response rating, Velvetleaf [5, 13] | Plant response rating, Velvetleaf [5, 14] | Plant response rating, Velvetleaf [5, 15] | Plant response rating, Morningglory [9, 13] | Plant response rating, Morningglory [9, 14] | Plant response rating, Morningglory [9, 15] | Plant response rating, Morningglory [9, 16] | Plant response rating, Bromegrass, Downy [11, 13] | Plant response rating, Sunflower [12, 17] | Plant response rating, Sunflower ([12]; 62 g ai/ha, scale 0 to 100) | Plant response rating, Sunflower ([12]; 125 g ai/ha, scale 0 to 100) | Plant response rating, Sunflower ([12]; 250 g ai/ha, scale 0 to 100)
75: Plant response rating, Wheat [1, 16]
90: Plant response rating, Corn (corn (Zea mays); [14]) | Plant response rating, Foxtail, Green [4, 13]
80: Plant response rating, Blackgrass [8, 14]
70: Plant response rating, Bromegrass, Downy [11, 15]
100: Plant response rating, Galium [3, 17] | Plant response rating, Galium ([3]; 62 g ai/ha, scale 0 to 100) | Plant response rating, Galium ([3]; 250 g ai/ha, scale 0 to 100) | Plant response rating, Foxtail, Green [4, 15] | Plant response rating, Foxtail, Green [4, 16] | Plant response rating, Crabgrass, Large [6, 14] | Plant response rating, Crabgrass, Large [6, 15] | Plant response rating, Crabgrass, Large [6, 16] | Plant response rating, Foxtail, Giant [7, 13] | Plant response rating, Foxtail, Giant [7, 14] | Plant response rating, Foxtail, Giant [7, 15] | Plant response rating, Foxtail, Giant [7, 16] | Blackgrass plant response rating [8, 18] | Plant response rating, Blackgrass [8, 15] | Bermudagrass plant response rating [10, 18] | Plant response rating, Bermudagrass [10, 13] | Plant response rating, Bermudagrass [10, 14] | Plant response rating, Bermudagrass [10, 15]
60: Plant response rating, Wheat [1, 15] | Plant response rating, Oat, Wild (wild oat (Avena fatua); [16]) | Plant response rating, Blackgrass [8, 13]
20: Plant response rating, Bromegrass, Downy [11, 14]
95: Plant response rating, Corn (corn (Zea mays); [15]) | Plant response rating, Corn (corn (Zea mays); [16]) | Plant response rating, Foxtail, Green [4, 14]
98: Plant response rating, Crabgrass, Large [6, 13]
10: Plant response rating, Velvetleaf [5, 16]
50: Plant response rating, Wheat [1, 14] | Plant response rating, Oat, Wild (wild oat (Avena fatua); [14]) | Plant response rating, Corn (corn (Zea mays); [13])
30: Plant response rating, Wheat [1, 13] | Plant response rating, Lambsquarters [2, 16]

Cc1cc(-c2ccc(Cl)cc2)nn1-c1c(OC(=O)c2ccccc2)cnn(C)c1=O [Compound 48]
55: Plant response rating, Corn (corn (Zea mays); [22])
80: Oat, Wild plant response rating (wild oat (Avena fatua); postemergence, 0-100 scale) | Plant response rating, Oat, Wild (wild oat (Avena fatua); [23]) | Plant response rating, Foxtail, Green [4, 22] | Blackgrass plant response rating ([8]; Preemergence, 8 g ai/ha, scale 0 to 100) | Plant response rating, Bromegrass, Downy [11, 14]
5: Plant response rating, Wheat [1, 23] | Plant response rating, Oat, Wild (wild oat (Avena fatua); [22]) | Bromegrass, Downy plant response rating ([11]; postemergence, 0-100 scale)
85: Plant response rating, Oat, Wild (wild oat (Avena fatua); [14]) | Plant response rating, Crabgrass, Large [6, 19] | Foxtail, Giant plant response rating ([7]; postemergence, 0-100 scale) | Plant response rating, Blackgrass [8, 19] | Plant response rating, Blackgrass [8, 20]
60: Plant response rating, Wheat [1, 24] | Plant response rating, Bromegrass, Downy [11, 20]
75: Plant response rating, Corn (corn (Zea mays); [14])
65: Bermudagrass plant response rating [10, 26]
98: Plant response rating, Wheat [1, 21] | Plant response rating, Oat, Wild (wild oat (Avena fatua); [20]) | Plant response rating, Foxtail, Green [4, 19] | Plant response rating, Bermudagrass [10, 19]
15: Corn plant response rating (corn (Zea mays); Preemergence, scale 0 to 100)
50: Plant response rating, Wheat [1, 19] | Plant response rating, Bromegrass, Downy [11, 19]
30: Foxtail, Green plant response rating ([4]; Preemergence, scale 0 to 100)
40: Blackgrass plant response rating [8, 26]
70: Plant response rating, Corn (corn (Zea mays); [13]) | Foxtail, Green plant response rating ([4]; postemergence, 0-100 scale) | Crabgrass, Large plant response rating ([6]; postemergence, 0-100 scale) | Plant response rating, Bromegrass, Downy [11, 13]
95: Plant response rating, Wheat [1, 20] | Plant response rating, Oat, Wild (wild oat (Avena fatua); [19]) | Plant response rating, Corn (corn (Zea mays); [19]) | Plant response rating, Foxtail, Giant [7, 19] | Plant response rating, Blackgrass [8, 21]
0: Wheat plant response rating ([1]; postemergence, 0-100 scale) | Plant response rating, Wheat [1, 22] | Wheat plant response rating ([1]; Preemergence, scale 0 to 100) | Oat, Wild plant response rating (wild oat (Avena fatua); Preemergence, scale 0 to 100) | Lambsquarters plant response rating ([2]; postemergence, 0-100 scale) | Plant response rating, Lambsquarters [2, 19] | Plant response rating, Lambsquarters [2, 20] | Plant response rating, Lambsquarters [2, 21] | Plant response rating, Lambsquarters [2, 22] | Plant response rating, Lambsquarters [2, 13] | Plant response rating, Lambsquarters [2, 14] | Lambsquarters plant response rating ([2]; Preemergence, scale 0 to 100) | Plant response rating, Galium [3, 25] | Plant response rating, Galium [3, 17] | Velvetleaf plant response rating ([5]; postemergence, 0-100 scale) | Plant response rating, Velvetleaf [5, 19] | Plant response rating, Velvetleaf [5, 20] | Plant response rating, Velvetleaf [5, 21] | Plant response rating, Velvetleaf [5, 22] | Plant response rating, Velvetleaf [5, 23] | Plant response rating, Velvetleaf [5, 24] | Velvetleaf plant response rating ([5]; Preemergence, scale 0 to 100) | Plant response rating, Crabgrass, Large [6, 22] | Plant response rating, Crabgrass, Large [6, 13] | Plant response rating, Crabgrass, Large [6, 14] | Crabgrass, Large plant response rating ([6]; Preemergence, scale 0 to 100) | Plant response rating, Foxtail, Giant [7, 22] | Plant response rating, Foxtail, Giant [7, 13] | Plant response rating, Foxtail, Giant [7, 14] | Foxtail, Giant plant response rating ([7]; Preemergence, scale 0 to 100) | Morningglory plant response rating ([9]; postemergence, 0-100 scale) | Plant response rating, Morningglory [9, 19] | Plant response rating, Morningglory [9, 20] | Plant response rating, Morningglory [9, 21] | Plant response rating, Morningglory [9, 22] | Plant response rating, Morningglory [9, 23] | Plant response rating, Morningglory [9, 14] | Morningglory plant response rating ([9]; Preemergence, scale 0 to 100) | Bermudagrass plant response rating ([10]; Preemergence, 8 g ai/ha, scale 0 to 100 (0 no effect, 100 complete control)) | Plant response rating, Bermudagrass [10, 22] | Plant response rating, Bermudagrass [10, 13] | Plant response rating, Bermudagrass [10, 14] | Plant response rating, Bromegrass, Downy [11, 22] | Bromegrass, Downy plant response rating ([11]; Preemergence, scale 0 to 100) | Plant response rating, Sunflower [12, 25] | Plant response rating, Sunflower ([12]; 31 g ai/ha, scale 0 to 100 (0 no effect, 100 complete control)) | Plant response rating, Sunflower ([12]; 62 g ai/ha, scale 0 to 100) | Sunflower plant response rating ([12]; 8 g ai/ha, scale 0 to 100)
100: Plant response rating, Oat, Wild (wild oat (Avena fatua); [21]) | Plant response rating, Corn (corn (Zea mays); [20]) | Plant response rating, Corn (corn (Zea mays); [21]) | Plant response rating, Foxtail, Green [4, 20] | Plant response rating, Foxtail, Green [4, 21] | Plant response rating, Foxtail, Green [4, 13] | Plant response rating, Foxtail, Green [4, 14] | Plant response rating, Crabgrass, Large [6, 21] | Plant response rating, Foxtail, Giant [7, 20] | Plant response rating, Foxtail, Giant [7, 21] | Plant response rating, Blackgrass [8, 14] | Plant response rating, Bermudagrass [10, 20] | Plant response rating, Bermudagrass [10, 21]
90: Corn plant response rating (corn (Zea mays); postemergence, 0-100 scale) | Plant response rating, Crabgrass, Large [6, 20] | Plant response rating, Blackgrass [8, 22] | Plant response rating, Blackgrass [8, 13] | Plant response rating, Bromegrass, Downy [11, 21]
